According to patent US6608086B2, “Dihydropyridines and new uses thereof” (Synaptic Pharmaceutical Corporation, priority 1993, dated 2003):
Counter-ions that a name gives are not always drawn. Like-named read-outs stand apart in the source and are kept apart here.

Tests used:
[1] = target: T1, L-type calcium channel (Rattus norvegicus, UniProt P22002); assay: Competition binding of [3H]nitrendipine to membrane fragments of rat cardiac muscle
T1 construct: membrane fragments of rat cardiac muscle; from tissue; host or cells: rat cardiac muscle membranes

[2] = target: T2, α1C Human Adrenergic Receptor (Homo sapiens, UniProt P35348); assay: Radioligand binding, [3H]prazosin, cloned human α1C adrenergic receptor
T2 construct: The entire coding region of α1C (1401 bp); expressed in transfected cells
T2 sequence (P35348 1-466): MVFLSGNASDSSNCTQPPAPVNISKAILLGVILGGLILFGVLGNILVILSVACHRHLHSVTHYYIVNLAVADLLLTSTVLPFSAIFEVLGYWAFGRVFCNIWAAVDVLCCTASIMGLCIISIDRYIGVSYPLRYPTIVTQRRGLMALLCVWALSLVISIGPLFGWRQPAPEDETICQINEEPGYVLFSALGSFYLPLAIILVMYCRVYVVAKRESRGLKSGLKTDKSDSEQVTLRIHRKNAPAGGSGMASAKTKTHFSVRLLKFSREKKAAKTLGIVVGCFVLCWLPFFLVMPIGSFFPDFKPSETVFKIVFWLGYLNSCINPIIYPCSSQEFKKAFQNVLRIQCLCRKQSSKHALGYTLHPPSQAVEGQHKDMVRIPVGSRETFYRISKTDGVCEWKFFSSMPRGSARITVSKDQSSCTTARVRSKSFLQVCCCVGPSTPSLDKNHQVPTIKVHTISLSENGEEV
Procedure, shortened: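 LM(tk−) membranes (stable human α1C); [3H]prazosin 0.5 nM; 37° C., 20 min; Tris-HCl 50 mM/MgCl2 1 mM/ascorbate 0.1%, pH 7.5; NSB 10 μM phentolamine; GF/B filtration.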

[3] = target: T3, α2A receptor (Homo sapiens, UniProt P08913); assay: Competition binding, [3H]rauwolscine, human α2A receptor
T3 construct: host or cells: LM(tk-) cells, line L-α2A
T3 sequence (P08913 1-465): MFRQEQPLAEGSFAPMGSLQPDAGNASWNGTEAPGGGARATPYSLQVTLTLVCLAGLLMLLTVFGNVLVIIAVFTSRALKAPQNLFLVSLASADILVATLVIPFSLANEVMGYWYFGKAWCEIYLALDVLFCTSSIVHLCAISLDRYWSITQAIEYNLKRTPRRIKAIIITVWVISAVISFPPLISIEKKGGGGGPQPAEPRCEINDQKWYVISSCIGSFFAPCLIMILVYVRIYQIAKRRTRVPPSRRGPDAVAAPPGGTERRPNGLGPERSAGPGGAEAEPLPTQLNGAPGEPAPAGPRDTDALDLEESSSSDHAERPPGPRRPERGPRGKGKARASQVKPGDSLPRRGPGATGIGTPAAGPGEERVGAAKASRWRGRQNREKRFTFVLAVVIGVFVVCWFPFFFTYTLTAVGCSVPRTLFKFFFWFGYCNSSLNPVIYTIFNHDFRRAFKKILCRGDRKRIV
Procedure, shortened: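 Lysates of LM(tk−) cells stably expressing human α2A, α2B or α2C receptors in 25 mM glycylglycine pH 7.6. Equilibrium competition against 0.5 nM [3H]rauwolscine, with 10 μM phentolamine defining nonspecific binding. Bound ligand separated by GF/B filtration.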

[4] = cloned human receptor in LM(tk-) cell membranes, SEM and n in lines below
[5] = [3H]nitrendipine, rat cardiac muscle membranes, SEM and n in lines below, read-out: pKi Ca (converted)
[6] = cloned human receptor in LM(tk-) cell membranes, SEM and n in lines below, read-out: pKi alpha-1 1c (converted)
[7] = [3H]rauwolscine, LM(tk-) cell line L-α2A, SEM and n in lines below, read-out: pKi alpha-2 2a (converted)
[8] = PKi alpha-1 1c, cloned human α1C receptor, LM(tk-) cell membranes
[9] = [3H]rauwolscine, human α2A receptor, LM(tk-) cells, read-out: PKi alpha-2 2a (converted)
[10] = cloned human α1C receptor, LM(tk-) cell membranes, read-out: PKi alpha-1 1c (converted)

T1 sequence (P22002 whole entry, other chains not shown, the tested form may be a part): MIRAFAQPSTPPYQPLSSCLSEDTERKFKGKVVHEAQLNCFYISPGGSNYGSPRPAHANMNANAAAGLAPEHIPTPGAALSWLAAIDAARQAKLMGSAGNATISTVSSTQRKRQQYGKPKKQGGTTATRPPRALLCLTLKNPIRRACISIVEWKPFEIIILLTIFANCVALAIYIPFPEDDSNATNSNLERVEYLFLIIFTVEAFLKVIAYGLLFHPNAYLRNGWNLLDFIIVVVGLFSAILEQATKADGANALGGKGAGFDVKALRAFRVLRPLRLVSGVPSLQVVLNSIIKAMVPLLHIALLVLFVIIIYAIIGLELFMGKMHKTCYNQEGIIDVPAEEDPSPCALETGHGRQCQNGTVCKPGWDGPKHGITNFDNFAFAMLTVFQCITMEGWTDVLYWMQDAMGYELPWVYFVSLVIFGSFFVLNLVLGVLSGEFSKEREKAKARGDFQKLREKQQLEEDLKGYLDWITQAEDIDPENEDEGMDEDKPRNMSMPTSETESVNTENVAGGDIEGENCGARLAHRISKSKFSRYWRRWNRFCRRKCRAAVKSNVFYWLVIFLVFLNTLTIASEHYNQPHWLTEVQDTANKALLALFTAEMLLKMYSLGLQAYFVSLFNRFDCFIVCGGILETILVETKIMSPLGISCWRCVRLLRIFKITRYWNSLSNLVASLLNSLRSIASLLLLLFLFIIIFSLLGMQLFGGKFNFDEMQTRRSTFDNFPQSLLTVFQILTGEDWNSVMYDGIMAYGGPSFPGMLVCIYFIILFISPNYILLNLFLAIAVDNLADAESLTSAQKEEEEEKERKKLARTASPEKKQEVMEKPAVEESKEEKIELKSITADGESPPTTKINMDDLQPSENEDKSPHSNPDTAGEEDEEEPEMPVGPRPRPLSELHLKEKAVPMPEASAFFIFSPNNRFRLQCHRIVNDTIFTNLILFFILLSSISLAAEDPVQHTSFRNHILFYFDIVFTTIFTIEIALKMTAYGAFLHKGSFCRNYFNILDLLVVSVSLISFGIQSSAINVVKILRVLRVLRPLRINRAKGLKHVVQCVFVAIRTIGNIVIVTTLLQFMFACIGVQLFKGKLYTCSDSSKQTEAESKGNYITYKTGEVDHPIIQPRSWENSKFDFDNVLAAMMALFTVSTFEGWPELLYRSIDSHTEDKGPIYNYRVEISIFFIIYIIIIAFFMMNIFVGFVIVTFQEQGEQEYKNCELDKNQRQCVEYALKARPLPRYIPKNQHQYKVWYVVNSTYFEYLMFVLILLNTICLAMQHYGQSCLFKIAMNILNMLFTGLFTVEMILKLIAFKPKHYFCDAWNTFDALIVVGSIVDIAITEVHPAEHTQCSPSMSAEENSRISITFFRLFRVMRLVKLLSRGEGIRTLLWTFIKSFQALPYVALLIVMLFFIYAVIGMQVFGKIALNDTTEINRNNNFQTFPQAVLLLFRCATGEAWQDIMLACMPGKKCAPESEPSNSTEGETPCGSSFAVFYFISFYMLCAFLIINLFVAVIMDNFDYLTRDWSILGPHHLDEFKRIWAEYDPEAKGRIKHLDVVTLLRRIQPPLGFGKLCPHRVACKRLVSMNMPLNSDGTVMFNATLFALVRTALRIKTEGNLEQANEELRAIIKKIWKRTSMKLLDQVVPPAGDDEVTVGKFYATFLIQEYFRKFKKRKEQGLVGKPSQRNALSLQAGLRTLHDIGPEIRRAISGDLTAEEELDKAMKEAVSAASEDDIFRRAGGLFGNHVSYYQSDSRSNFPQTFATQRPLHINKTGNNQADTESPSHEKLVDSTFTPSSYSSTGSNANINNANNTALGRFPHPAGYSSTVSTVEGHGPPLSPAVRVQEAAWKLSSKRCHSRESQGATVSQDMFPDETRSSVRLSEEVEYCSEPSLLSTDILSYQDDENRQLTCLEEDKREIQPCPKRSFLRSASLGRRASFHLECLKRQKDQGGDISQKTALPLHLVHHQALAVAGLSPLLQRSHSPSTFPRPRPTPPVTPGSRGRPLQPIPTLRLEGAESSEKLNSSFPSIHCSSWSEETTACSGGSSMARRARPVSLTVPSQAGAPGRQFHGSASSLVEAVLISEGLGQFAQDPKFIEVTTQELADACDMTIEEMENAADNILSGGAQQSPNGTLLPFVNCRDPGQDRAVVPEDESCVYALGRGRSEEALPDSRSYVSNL
T1 sequence (P54290 25-944 partner limits assumed, other chains not shown): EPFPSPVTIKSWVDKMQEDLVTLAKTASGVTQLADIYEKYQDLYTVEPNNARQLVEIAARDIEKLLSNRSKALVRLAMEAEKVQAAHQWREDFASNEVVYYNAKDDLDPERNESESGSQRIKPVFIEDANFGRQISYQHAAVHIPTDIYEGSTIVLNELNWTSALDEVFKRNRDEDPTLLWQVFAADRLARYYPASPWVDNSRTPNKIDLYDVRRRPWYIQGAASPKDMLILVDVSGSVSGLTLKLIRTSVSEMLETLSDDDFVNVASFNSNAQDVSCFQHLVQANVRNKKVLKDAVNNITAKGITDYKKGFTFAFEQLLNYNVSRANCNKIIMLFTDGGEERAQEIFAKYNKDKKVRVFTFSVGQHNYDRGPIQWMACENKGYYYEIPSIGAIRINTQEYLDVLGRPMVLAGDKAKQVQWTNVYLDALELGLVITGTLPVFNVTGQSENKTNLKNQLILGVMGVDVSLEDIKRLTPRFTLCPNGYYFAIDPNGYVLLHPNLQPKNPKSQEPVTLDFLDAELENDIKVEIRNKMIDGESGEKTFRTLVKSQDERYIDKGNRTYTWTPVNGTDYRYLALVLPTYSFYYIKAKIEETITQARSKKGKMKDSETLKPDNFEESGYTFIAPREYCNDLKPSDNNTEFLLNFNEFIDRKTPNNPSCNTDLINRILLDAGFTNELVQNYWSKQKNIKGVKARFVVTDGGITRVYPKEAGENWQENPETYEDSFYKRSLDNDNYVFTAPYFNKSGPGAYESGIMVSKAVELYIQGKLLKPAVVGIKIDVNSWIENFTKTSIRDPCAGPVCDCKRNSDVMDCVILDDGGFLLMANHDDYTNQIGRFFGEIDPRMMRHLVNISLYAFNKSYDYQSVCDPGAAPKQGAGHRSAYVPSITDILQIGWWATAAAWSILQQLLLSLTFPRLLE
T1 sequence (P54290 945-1091 partner limits assumed, other chains not shown): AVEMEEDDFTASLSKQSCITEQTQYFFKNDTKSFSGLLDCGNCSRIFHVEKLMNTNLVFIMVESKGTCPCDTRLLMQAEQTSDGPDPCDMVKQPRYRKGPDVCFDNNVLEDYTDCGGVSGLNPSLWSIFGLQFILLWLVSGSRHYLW

In the case of “5-Acetyl-1,4-dihydro-2,6-dimethyl-4-(4-nitrophenyl)-3-[3-(4,4-diphenylpiperidin-1-yl)propoxy]carbonylpyridine hydrochloride hemihydrate [Example 49]”, the “pKi Ca” value [1] is reported as 5.37, the “pKi alpha-1 1c” value [2, 4] is reported as 8.56 and the “pKi alpha-2 2a” value [3] is reported as 6.63.
With COC(=O)C1=C(C)NC(C)=C(C(=O)NCCCN2CCC(c3ccccc3)CC2)C1c1ccc([N+](=O)[O-])cc1 (racemic) [(±)-45, (±)-1,4-Dihydro-3-methoxycarbonyl-2,6-dimethyl-4-(4-nitrophenyl)-5-{N-[3-(4-phenylpiperidin-1-yl)propyl]}carboxamidopyridine hydrochloride hemihydrate] the Ki [1, 5] was 7.41 µM, the Ki [2, 6] was 0.000234 µM and the Ki [3, 7] was 0.282 µM.
With CNC(=O)C1=C(C)NC(C)=C(C(=O)NCCCN2CCC(c3ccccc3)(c3ccccc3)CC2)C1c1ccc([N+](=O)[O-])cc1 (racemic) [(±)-119, 1,4-Dihydro-2,6-dimethyl-5-(N-Methyl) carboxamido-4-(4-nitrophenyl)-3-{N-[3-(4,4-diphenylpiperidin-1-yl)propyl]}carboxamidopyridine] the Ki ([1]; pKi Ca) was 7.41 µM, the “pKi alpha-1 1c” value ([2]; cloned human α1C receptor, LM(tk−) cell membranes) was 8.5 and the “pKi alpha-2 2a” value [3] was 6.4.
COC(=O)C1=C(C)NC(C)=C(C(=O)NCCCN2CCC(c3ccccc3)CC2)C1c1ccc([N+](=O)[O-])cc1 (single isomer, unassigned; (-)) [(−)-45, 1,4-Dihydro-3-methoxycarbonyl-2,6-dimethyl-4-(4-nitrophenyl)-5-{N-[3-(4-phenylpiperidin-1-yl)propyl]}carboxamidopyridine hydrochloride hemihydrate] was tested, and the Ki [1, 5] was 4.37 µM, the Ki [2, 6] was 0.000182 µM and the Ki [3, 7] was 0.339 µM.
COC(=O)C1=C(C)NC(C)=C(C(=O)NCCCCN2CCC(c3ccccc3)CC2)C1c1ccc([N+](=O)[O-])cc1 (stereo not shown) [Example 3, 1,4-Dihydro-3-methoxycarbonyl-2,6-dimethyl-4-(4-nitrophenyl)-5-{N-[4-(4-phenylpiperidin-1-yl)butyl]}carbozamidopyridine hydrochloride hydrate] showed a Ki [1, 5] of 1000 µM, a Ki [2, 6] of 0.00589 µM and a Ki [3, 7] of 0.102 µM.
With COC(=O)C1=C(C)NC(C)=C(C(=O)NCCCN2CCC(c3ccccc3)CC2)C1c1ccc(Cl)c([N+](=O)[O-])c1 (stereo not shown) [Example 17, 4-(4-Chloro-3-nitrophenyl)-1,4-dihydro-3-methoxycarbonyl-2,6-dimethyl-5-(N-(3-(4-phenylpiperidin-1-yl)propyl)carboxamido)pyridine] the Ki [1, 5] was 10 µM, the Ki [2, 6] was 0.000537 µM and the Ki [3, 7] was 0.347 µM.
With COC(=O)C1=C(C)NC(C)=C(C(=O)NCCCN2CCC(c3ccccc3)CC2)C1c1cccc([N+](=O)[O-])c1 (stereo not shown) [Example 30, 1,4-Dihydro-3-methoxycarbonyl-2,6-dimethyl-4-(3-nitrophenyl)-5-(N-(3-(4-phenylpiperidin-1-yl)propyl)carboxamido)pyridine] the Ki [1, 5] was 0.0955 µM, the Ki [2, 6] was 0.00302 µM and the Ki [3, 7] was 0.117 µM.
In the case of CC1=C(C(=O)NCCCN2CCC(c3ccccc3)(c3ccccc3)CC2)C(c2ccc([N+](=O)[O-])cc2)C(C(=O)N(C)C)=C(C)N1 (stereo not shown) [Example 39, 1,4-Dihydro-2,6-dimethyl-3-(N,N-dimethyl) carboxamido-4-(4-nitrophenyl)-5-{N-[3-(4,4-diphenylpiperidin-1-yl)propyl]}carboxamidopyridine], the Ki [1, 5] is reported as 44.7 µM and the “pKi alpha-1 1c” value [2, 4] is reported as 7.23.
Molecule CC(=O)C1=C(C)NC(COCCN)=C(C(=O)NCCCN2CCC(c3ccccc3)(c3ccccc3)CC2)C1c1ccc2c(c1)OCO2 (stereo not shown) [Example 239, 5-Acetyl-2-((2-aminoethyl)oxy)methyl-1,4-dihydro-6-methyl-4-(3,4-methylenedioxy)phenyl-3-(N-(3-(4,4-dipheylpiperidin-1-yl)propyl))carboxamidopyridine] has a Ki [2, 8] of 0.00204 µM and a Ki [3, 9] of 0.832 µM.
Molecule CCOC(=O)C1(c2ccccc2)CCN(CCCNC(=O)C2=C(COC)NC(CC)=C(C(=O)O)C2c2ccc([N+](=O)[O-])cc2)CC1 (stereo not shown) [Example 240, 3-(N-3-(4-Ethoxycarbonyl-4-phenylpiperidin-1-yl)propyl)carboxamido-6-ethyl-1,4-dihydro-2-(methyloxy)methyl-4-(4-nitro)phenylpyridine-5-carboxylic Acid] has a Ki [2, 10] of 0.0269 µM and a Ki [3] of 18.6 µM.
COC(=O)C1(c2ccccc2)CCN(CCCNC(=O)C2=C(COCCCN)NC(C)=C(C(C)=O)C2c2ccc([N+](=O)[O-])cc2)CC1 (stereo not shown) [Example 241, 5-Acetyl-2-((3-aminopropyl)oxy)methyl-1,4-dihydro-3-(N-(3-(4-methoxycarbonyl-4-phenylpiperidin-1-yl)propyl))carboxamido-6-methyl-4-(4-nitro)phenylpyridine] was tested, and the Ki [2, 10] was 0.00437 µM and the Ki [3] was 1.58 µM.
With CC(=O)C1=C(C)NC(COCCN)=C(C(=O)NCCCN2CCC(c3ccccc3)(c3ccccc3)CC2)C1c1ccc(F)cc1 (stereo not shown) [Example 242, 5-Acetyl-2-((2-aminoethyl)oxy)methyl-4-(4-fluoro)phenyl-1,4-dihydro-6-methyl-3-(N-(3-(4,4-diphenylpiperidin-1-yl)propyl))carboxamidopyridine] the Ki [2, 8] was 0.00398 µM and the Ki [3, 9] was 1.41 µM.
For CCOC(=O)C1(c2ccccc2)CCN(CCCNC(=O)C2=C(COCC(F)(F)F)NC(C)=C(C(N)=O)C2c2ccc([N+](=O)[O-])cc2)CC1 (stereo not shown) [Example 243, 5-Carboxamido-3-(N-(3-(4-ethoxycarbonyl-4-phenylpiperidin-1yl)propyl))carboxamido-2-((2,2,2-trifluoroethyl)oxy)methyl-1,4dihydro-6-methyl-4-(4-nitro)phenylpyridine], the Ki [2, 10] was 0.00575 µM and the Ki [3, 9] was 2.24 µM.
CCOC(=O)C1(c2ccccc2)CCN(CCCNC(=O)C2=C(COCCN)NC(C)=C(C(C)=O)C2c2ccc3c(c2)OCO3)CC1 (stereo not shown) [Example 244, 5-Acetyl-2-((2-aminoethyl)oxy)methyl-3-(N-(3-(4-ethoxycarbonyl-4-phenylpiperidin-1-yl)propyl)) carboxamido-1,4-dihydro-6-methyl-4-(3,4-methylenedioxy) phenylpyridine] was tested, and the Ki [2, 10] was 0.00347 µM and the Ki [3, 9] was 1.02 µM.
COC(=O)C1(c2ccccc2)CCN(CCCNC(=O)C2=C(COCCN)NC(C)=C(C(C)=O)C2c2ccc(F)cc2)CC1 (stereo not shown) [Example 245, 5-Acetyl-2-((2-aminoethyl)oxy)methyl-4-(4-fluoro)phenyl-1,4-dihydro-3-(N-3-(4-methoxycarbonyl-4-phenylpiperidin-1-yl)propyl)carboxamido-6-methylpyridine] gave a Ki [2, 10] of 0.00501 µM and a Ki [3, 9] of 1.05 µM.
CCC1=C(C(=O)OCCO)C(c2ccc([N+](=O)[O-])cc2)C(C(=O)NCCCN2CCC(c3ccccc3)(c3ccccc3)CC2)=C(COC)N1 (stereo not shown) [Example 246] showed a Ki [2, 8] of 0.00275 µM and a Ki [3, 9] of 0.676 µM.
CCC1=C(C(=O)NCCOC)C(c2ccc([N+](=O)[O-])cc2)C(C(=O)NCCCN2CCC(c3ccccc3)(c3ccccc3)CC2)=C(COC)N1 (stereo not shown) [Example 247, 6-Ethyl-1,4-dihydro-5-N-((2-methoxy)ethyl)carboxamido-2-(methyloxy)methyl-4-(4-nitro)phenyl-3-(N-(3-(4,4-diphenylpiperidin-1-yl)propyl)) carboxamidopyridine] showed a Ki [2, 8] of 0.0245 µM and a Ki [3, 9] of 0.589 µM.
Molecule CCC1=C(C(=O)NN2CCOCC2)C(c2ccc([N+](=O)[O-])cc2)C(C(=O)NCCCN2CCC(c3ccccc3)(c3ccccc3)CC2)=C(COC)N1 (stereo not shown) [Example 248, 6-Ethyl-1,4-dihydro-2-((methyl)oxy)methyl-5-N-(morpholin-4yl)carboxamido-4-(4-nitro)phenyl-3-(N-(3-(4,4-diphenylpiperidin-1-yl)propyl))carboxamidopyridine] has a Ki [2, 10] of 0.174 µM and a Ki [3, 9] of 1 µM.
